Consider four compounds from patent US5932709A (University of Michigan, priority 1997, dated 1999).

Converted amounts (≈) assume the structure as drawn.

The nature of series [1]: in vivo. The settings on record: mouse, in vivo, ip. The source says:
For all the models, the vehicle used to deliver the analog of interest was isotonic saline.
For the MX-1 human breast tumor xenograft models, the following procedure was used. Nude mice are implanted s.c. by trocar with fragments of MX-1 mammary carcinomas harvested from s.c. growing MX-1 tumors in nude mice hosts. When tumors are approximately 5 mm×5 mm in size (usually about ten days after inoculation), the animals are pair-matched into treatment and control groups. Each group contains ten tumored mice, each of which is ear-tagged and followed individually throughout the experiment. The administration of drugs or vehicle begins the day the animals are pair-matched (day 1). The doses, route of drug administration and schedule are selected as appropriate for the study in question. If the MTD dose of an agent is not known, it is determined in an initial dosing experiment in non-tumored mice. In a typical experiment, drugs are given at their MTD and 1/2 MTD doses i.p. on a daily×5 schedule.
The experiment is usually terminated when control tumors reach a size of 2-3 g. Mice are weighed twice weekly, and tumor measurements are taken by calipers twice weekly, starting on day 1. These tumor measurements are converted to mg tumor weight by a well known formula, and from these calculated tumor weights the termination date can be determined. Upon termination, all mice are weighed, sacrificed, and their tumors excised. Tumors are weighed, and the mean tumor weight per group is calculated.
Some drugs cause tumor shrinkage in the MX-1 model. With these agents, the final weight of a given tumor is subtracted from its own weight at the start of the treatment on day 1. This difference divided by the initial tumor weight is the % shrinkage. A mean % tumor shrinkage can be calculated from data from the mice in a group that experienced MX-1 regressions. If the tumor completely disappears in a mouse, this is considered a complete regression or complete tumor shrinkage. If desired, mice with partial or total tumor regressions can be kept alive past the termination date to see whether they live to become long term, tumor-free survivors.
Note that in the following table the abbreviation SR refers to tumor shrinkage rate, while those entries followed by a superscripted `2` are tumor growth inhibition rates, not tumor shrinkage rates.

Series [2] in a line: Water solubility in phosphate buffered saline (spectrophotometric assay). The format is physicochemical. The note with it: for solubility at 24 h: aqueous buffer, water solubility, PBS pH 7.5, room temperature; for water solubility improvement: compared to camptothecin. The protocol: Approximately 5 mg of test compound was suspended in 1 mL of PBS in a 1.5 mL cryovial. The suspensions were mixed continuously on a Thermolyne vari-mix at room temperature for 24 hr. The suspensions were then centrifuged at 14000×g for 2 minutes to separate the undissolved materials. The supernatant fluids were diluted appropriately with PBS and the ultraviolet spectrums were recorded on a Beckman 640 DU spectrophotometer. For comparison, a standard stock (2 mg/mL in DMSO) solution was prepared for each analog. The ultraviolet spectrum of a 20 of 40 μg/mL standard working solution was measured. The water solubility of each analog was calculated based on the following formula:
Cunknown =Cstandard ×(Aunknown
where Cunknown is the concentration of the unknown solution to be determined; Cstandard is the concentration of the standard working solution (either 20 or 40 μg/mL); Astandard is the absorbance at 350 nm of the standard working solution; DDilution is the appropriate dilution factor used so that the absorbance of the unknown working solution is within the dynamic range of the UV spectrophotometer (less than 2 absorbance units).

Series [3] concerns MCF-7 human breast tumor cells. Put plainly: MTT growth inhibition, MCF-7. The series is classed as cell-based. The settings on record: MCF7, 144 h, MCF-7, MTT, 6 days, read-out: Growth Inhibitory Activity IC50. On the procedure: Camptothecin was used as a control to test the anti-cancer efficacy of the novel camptothecin analogs of the present invention.
Murine B16 melanoma cell line was grown in RPMI 1640 medium supplemented with 10% heat-inactivated fetal bovine serum, 2 mM L-glutamine, 50 units/mL penicillin, 50 μg/mL streptomycin, 25 μg/mL gentamicin, 0.75% sodium bicarbonate 10 mM HEPES buffer (pH 7.4), and 0.06 mg/mL AntiPPLO. Murine P388 leukemic cell line and human HT-29 colon adenocarcinoma line were maintained in RPMI 1640 medium supplemented with 10% heat-inactivated fetal bovine serum. […] MCF-7M human breast adenocarcinoma was maintained in IMEM supplemented with 5% non heat-inactivated fetal bovine serum and 1 nM insulin.
[See "Rapid Colorimetric Assay For Cellular Growth And Survival: Application To Proliferation And Cytotoxicity Assays," J. Immun. Meth. 65:55 (1983)]. The assay utilizes a tetrazolium salt to quantitatively measure mammalian cell survival and proliferation by colorimetric methods. In particular, MTT, a pale yellow compound with minimal absorbance, is incubated with cancerous cells in addition to (or in the absence of) a particular camptothecin analog. Living cells with active mitochondrial enzymes metabolize the MTT into a dark blue/purple formazan product with high absorbance. The exact procedure used to test the camptothecin analogs of the present invention is described below.
Exponentially growing cells (1-2×10^3 cells, unless specified otherwise) in 0.1 mL medium were seeded on day 0 in a 96-well microtiter plate. On day 1, 0.1 mL aliquots of medium containing graded concentrations of test analogs were added to the cell plates. After incubation at 37° C. in a humidified incubator for 3 days (P388, P388/CPT, B16) or 6 days (HT-29, MCF-7M), the plates were centrifuged briefly and 100 μL of the growth medium was removed. Cell cultures were incubated with 50 μL of 3-(4,5-dimethylthiazol-2-yl)-2,5-diphenyl-tetrazolium bromide [MTT, 1 mg/mL in Dulbecco's phosphate buffered saline (PBS)] for 4 hr at 37° C. The resulting purple formazan precipitate was solubilized with 200 μL of 0.04 N HCl in isopropyl alcohol. Absorbance was monitored in a BioRad Model 3550 Microplate Reader at a test wavelength of 570 nm and a reference wavelength of 630 nm. The absorbance is transferred to a PC 486 computer. The IC50 values were determined by a computer program (EZ-ED50) that fits all of the data to the following four-parameter logistic equation:
Y=(Amax -Amin)/(1+[X/IC^50 ])^n +Amin
where Amax is the absorbance of control cells, Amin is the absorbance of cells in the presence of highest agent concentration, IC^50 is the concentration of agent that inhibits the cell growth by 50% of control cells (based on the absorbance) and n is the slope of the curve.

As for `CC[C@@]1(O)C(=O)OCc2c1cc1n(c2=O)Cc2c-1nc1ccccc1c2CO[C@@H]1C=C[C@H](OC(C)=O)[C@@H](COC(C)=O)O1` [HAR4, 7-[4,6-di-O-acetyl-2,3-dideoxy-α-D-erythro-hex-2-enopyranosyl]oxymethylcamptothecin], the MTD in series [1] is 10 mg/kg. In series [2], the solubility at 24 h came to 155 µg/mL (≈ 262 µM). Moreover, in series [3], the half-maximal inhibitory concentration (IC50) worked out at 2.7 ng/mL (≈ 0.00457 µM).

For `CC[C@@]1(O)C(=O)OCc2c1cc1n(c2=O)Cc2c-1nc1ccccc1c2CO[C@@H]1C=C[C@H](O[C@H]2O[C@H](COC(C)=O)[C@@H](OC(C)=O)[C@H](OC(C)=O)[C@H]2OC(C)=O)[C@@H](COC(C)=O)O1` [HAR5, 7-[6-O-acetyl-4-O-(2,3,4,6-tetra-O-acetyl-α-D-glucopyranosyl)-2,3-dideoxy-α-D-erythro-hex-2-enopyranosyl]oxymethylcamptothecin], in series [2], the solubility at 24 h is 35 µg/mL (≈ 39.8 µM). Moreover, the IC50 in series [3] worked out at 10 ng/mL (≈ 0.0114 µM).

Take `CC[C@@]1(O)C(=O)OCc2c1cc1n(c2=O)Cc2c-1nc1ccccc1c2CO[C@@H]1C=C[C@H](O[C@H]2O[C@H](CO)[C@@H](O)[C@H](O)[C@H]2O)[C@@H](CO)O1` [HAR6, 7-[4-O-(α-D-glucopyranosyl)-2,3-dideoxy-α-D-erythro-hex-2-enopyranosyl]-oxymethylcamptothecin]: the MTD in series [1] was 100 mg/kg. In series [2], this compound showed a solubility at 24 h of 1620 µg/mL (≈ 2420 µM) and a water solubility improvement of 80 fold. The IC50 in series [3] was 111 ng/mL (≈ 0.166 µM).

`CC[C@@]1(O)C(=O)OCc2c1cc1n(c2=O)Cc2c-1nc1ccccc1c2CO[C@@H]1C=C[C@H](O)[C@@H](CO)O1` [HAR7, 7-[2,3-dideoxy-α-D-erythro-hex-2-enopyranosyl]-oxymethylcamptothecin]: in series [2], the solubility at 24 h was 62 µg/mL (≈ 122 µM) and the water solubility improvement is reported as 16 fold. For the same compound, the IC50 in series [3] was 6.4 ng/mL (≈ 0.0126 µM).
